In test [1] the test system is neutrophils. The test can be described thus: Neutrophil chemotaxis assay, C5a co-chemotactic activity of DBP. It counts as cell-based, human. The text has this: Isolation of human neutrophils Neutrophils, serum, and plasma were isolated from the venous blood of healthy, medication-free, paid volunteers who gave informed consent. The Institutional Review Board of Stony Brook University approved this procedure. These procedures have been described in detail previously (Kew et al., 1995a).
Neutrophil chemotaxis assay Cell movement was quantitated using a 48 well microchemotaxis chamber (Neuroprobe, Cabin John, Md.) and 5.0 μm pore size cellulose nitrate filters (purchased from Neuroprobe) as previously described (Kew et al., 1995a). Cell suspensions and chemotactic factors were prepared and/or diluted in the chemotaxis assay buffer (Hank's balanced salt solution supplemented with 10 mM HEPES (pH 7.4) and 1% bovine serum albumin). Cell movement was quantitated microscopically by measuring the distance in microns (μm) that the leading front of cells had migrated into the filter according to the method described by Zigmond and Hirsch (1973). In each experiment, five fields per duplicate filter were measured at 400× magnification.

The subject of test [2] is neutrophils. The test can be described thus: Quantitative binding of radioiodinated DBP to neutrophils. The following applies: DBP saturated with the ligand; 100 nM 125I-DBP, 37° C. 60 min. More on the design: species or system human. On the procedure:
Quantitative binding of radioiodinated DBP to neutrophils Purified DBP (200-400 μg) was iodinated using Na-^125I (Dupont-NEN, Wilmington, Del.) as previously described (DiMartino and Kew, 1999). Neutrophils (10^7 cells/sample) were incubated with 100 nM ^125I-DBP in Hank's balanced salt solution (HBSS) containing 0.1% bovine serum albumin (BSA) (assay buffer) in a total volume of 100 μl. Samples were incubated at 37° C. for 60 min after which cells were placed on ice and then washed twice with ice-cold assay buffer (1.0 ml each) and centrifuged for 7 min at 200× g at 2° C. The cell pellets were then counted for total radioactivity in a gamma counter. All samples were assayed in triplicate or quadruplicate.

Test [3] concerns Alkaline phosphatase activity on the plasma membrane of viable neutrophils. The test can be described thus: Neutrophil alkaline phosphatase assay (DiFMUP). In kind it is cell-based, human. Conditions: 5×10^6 cells pretreated with 10 nM 1,25(OH)2D3 or 10 μM SOV; untreated 11,107±1335 units. On the procedure:
Neutrophil alkaline phosphatase assay Alkaline phosphatase activity on the plasma membrane of viable neutrophils was measured using the fluorescent substrate 6,8-difluoro-4-methylumbelliferyl phosphate (DiFMUP) and the EnzChek Phosphatase Assay Kit (Molecular Probes, Eugene, Oreg.). Neutrophils (5×10^6 cells) were suspended in 50 μl of 0.1M sodium acetate (pH 5.0) and were immediately added to microtiter plates containing 50 μl of 0.2mM DiFMUP substrate and incubated for 5 min at 22° C. in the dark. A standard curve was generated using known amounts of the fluorescent compound 6,8-difluoro-7-hydroxy-4-methylcoumarin. Fluorescence was measured at 358 nm excitation and 455 nm emission using a SpectraMax M2 microtiter plate reader (Molecular Devices, Sunnydale, Calif.).

Test [4] concerns differentiated HL-60 cells. The test can be described thus: Chemotaxis assay, differentiated HL-60 cells responding to C5a, C5a plus DBP or ZAS. The following applies: for block of the cochemotactic function of full-length natural DBP (C5a+DBP) / HL-60 cell chemotactic response to complement-activated serum (ZAS): cells pretreated with 1 μM peptide 30 min; for block of the cochemotactic function of full-length natural DBP (C5a+DBP): 100 pM C5a plus 50 nM DBP, 60 min; for HL-60 cell chemotactic response to complement-activated serum (ZAS): 1% ZAS; for enhancement of C5a-mediated chemotaxis by the peptides: peptides by themselves or mixed together. In kind it is cell-based, Human. Here is the method:
Cells (6×10^6/ml) were resuspended in chemotaxis buffer and treated either with chemotaxis buffer (control), 1 μM of peptide 1 (130-152), or 1 μM of peptide 2 (150-172) for 30 min at room temperature. The chemotactic response of differentiated HL-60 cells to 100 pM C5a alone, C5a plus 50 nM full-length natural DBP or 1% zymosan-activated serum (ZAS) was measured for 60 minutes at 37° C. Numbers represent net cell movement in 60 min, mean±SEM of 3 experiments.
Cells and cell culture: Human promyelocytic cell line HL-60 was obtained from ATCC (Rockville, Md.) and cultured in RPMI 1640 medium supplemented with 10% FBS. Differentiation of HL-60 cells was initiated with 250 μM Bt2cAMP for 48 hours.
Chemotaxis assay. Chemotaxis was performed as described previously (see Kew, R. R. et al., J. Leukoc. Biol. 58, 55-58 (1995)). In brief, 35 μl of C5a (0.01 to 1 nM) in the chemotaxis buffer (HBSS with 1% BSA, 10 mM HEPES) were placed in duplicate in the lower chamber of a 48-well chamber (Neuroprobe, Md.). The lower compartments were covered with a 5 μm pore cellulose nitrate filter and then 50 μl of the cell suspension (2.5×10^5/well) was pipetted into the upper compartments. The chemotactic chamber was incubated for 1 hour at 37° C. in a humidified incubator with 5% CO2. Following incubation, the filter was fixed, stained and mounted on a microscope slide. Cell movement was measured as the distance in microns that the leading front of the cells had migrated into the filter (see Zigmond, S. et al., J. Exp. Med. 137, 387 (1973)).

The target in test [5] is T1, DBP immobilized on a Biacore sensor chip (Homo sapiens, UniProt P02774).
T1 construct: DBP was purified from human plasma; purchased Biodesign International; host or cells: human plasma
T1 sequence (P02774 17-474): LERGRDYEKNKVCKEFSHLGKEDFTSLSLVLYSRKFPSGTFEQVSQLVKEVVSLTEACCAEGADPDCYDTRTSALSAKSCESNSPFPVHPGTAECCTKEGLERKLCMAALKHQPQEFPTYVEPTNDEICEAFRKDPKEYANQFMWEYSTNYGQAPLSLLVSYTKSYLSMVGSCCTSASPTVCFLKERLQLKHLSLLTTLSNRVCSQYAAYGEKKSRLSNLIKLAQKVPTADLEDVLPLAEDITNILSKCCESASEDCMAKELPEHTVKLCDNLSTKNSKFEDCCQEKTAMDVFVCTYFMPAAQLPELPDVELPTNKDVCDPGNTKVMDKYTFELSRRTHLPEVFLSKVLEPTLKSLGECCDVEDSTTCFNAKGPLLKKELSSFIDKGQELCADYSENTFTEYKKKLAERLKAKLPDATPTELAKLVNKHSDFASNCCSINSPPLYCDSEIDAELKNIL
The test can be described thus: Biacore surface plasmon resonance: U937-C5aR cell binding to immobilized DBP. Conditions: FIG. 9A; 10^6 cells/ml pretreated with 50 nM DBP or 0.5 μM DBP peptide. Here is the method:
FIG. 8A and FIG. 8B show immobilization of DBP on a Biacore surface plasmon resonance sensor chip CM5. Purified DBP in HBSS (5 μM) was coupled to the sensor chip. Coupling was detected using 5 μg/ml affinity-purified anti-DBP (FIG. 8A). Different concentrations of U937-C5aR cells in HBSS were injected into the flow cell and allowed to interact with the immobilized DBP (FIG. 8B). Data is expressed as response units of the molecular interaction on the sensor chip.
(§1) FIGS. 9A to 9C show the effect of pretreating U937-C5aR cells with purified DBP or DBP peptides on the binding to DBP immobilized on a Biacore sensor chip. FIG. 9A: 10^6 cells/ml in HBSS were not treated (control), pretreated with 50 nM DBP, 0.5 μM DBP peptide 1 (p1) or DBP peptide 2 (p2). FIG. 9B: DBP peptide 1 immobilized to the Biacore sensor chip. FIG. 9C: DBP peptide 2 immobilized to the Biacore sensor chip. Data is expressed as response units of the molecular interaction on the sensor chip.
U937-C5aR cells (10^6 cells/ml in HBSS) were pretreated with a 25 μg/ml control IgG, 50 nM purified DBP or 25 μg/ml affinity-purified anti-CD44 and then allowed to interact with DBP immobilized on a Biacore sensor chip. Data is expressed as response units of the molecular interaction on the sensor chip.
According to the present invention, the interaction of an immobilized ligand, e.g., immobilized DBP, binding to cells can be measure by any established technology available in the art, e.g., by surface plasmon resonance (SPR) or Biacore technology. For example, in the present invention, the binding of U937-C5aR cells to immobilized DBP were examined by Biacore technology, the result of which is used to further determine if the DBP peptides generated in the present invention can alter the interaction U937-C5aR cells and DBP. […] To investigate further the effect of DBP peptides on cell binding, peptide 1 (FIG. 9B) and peptide 2 (FIG. 9C) were immobilized to Biacore sensor chips. […] Finally, the present invention also identifies that CD44 on the cell surface binds DBP and can, in part, mediate the C5a chemotactic cofactor effect of DBP (McVoy and Kew, J. Immunol. 175:4754, 2005). Therefore, using Biacore technology the present invention addresses the effect of blocking CD44 on U937-C5aR binding to immobilized DBP (FIG. 10). In the present invention, U937-C5aR cells were pretreated with either an irrelevant goat IgG (negative control), purified soluble DBP (positive control) or affinity-purified goat anti-CD44. […] These Biacore experiments have provided a powerful quantitative tool to investigate the cell binding region on DBP and examine the effects on DBP peptides on this interaction.

The subject of test [6] is U937-C5aR cells. The test can be described thus: Biacore: U937-C5aR cell binding to immobilized DBP peptides. More on the design: species or system human. The following applies: FIG. 9B, 9C; peptide immobilized to Biacore sensor chip. Here is the method:
as §1
According to the present invention, the interaction of an immobilized ligand, e.g., immobilized DBP, binding to cells can be measure by any established technology available in the art, e.g., by surface plasmon resonance (SPR) or Biacore technology. For example, in the present invention, the binding of U937-C5aR cells to immobilized DBP were examined by Biacore technology, the result of which is used to further determine if the DBP peptides generated in the present invention can alter the interaction U937-C5aR cells and DBP. […] To investigate further the effect of DBP peptides on cell binding, peptide 1 (FIG. 9B) and peptide 2 (FIG. 9C) were immobilized to Biacore sensor chips. […] These Biacore experiments have provided a powerful quantitative tool to investigate the cell binding region on DBP and examine the effects on DBP peptides on this interaction.

Test [7] deals with U937-C5aR cells. The test can be described thus: C5a-induced intracellular calcium mobilization in U937-C5aR cells. It counts as cell-based, human. The following applies: FIG. 11B, 12; 0.5 μM DBP peptide, 50 nM DBP, 0.1 nM C5a. On the procedure:
FIG. 11A and FIG. 11B show the effect of DBP on C5a-induced intracellular calcium mobilization in U937-C5aR cells. U937-C5aR cells (10^7 cells/ml) were resuspended in HBSS-1% BSA containing 2 μM Fluo-3 AM and incubated at 37° C. for 40 minutes. Cells incubated without the dye were used as a control to measure autofluorescence (Fmin). Following the dye uptake, cells were washed twice then suspended at 5×10^6 cells/ml in HBSS containing 1% BSA. For the pretreatment experiments, cells were incubated for 30 min at 22° C. with 50 nM DBP or 0.5 μM DBP peptide 1 (p1). For each measurement, 400 μl of cell suspension was added to a cuvette and stimulated with the indicated concentration of C5a (FIG. 11A) or 0.1 nM C5a (FIG. 11B). Fluorescence was then measured immediately using a Perkin-Elmer LS-5 fluorometer at 505 nm excitation, 526 nm emission for Fluo-3 AM. Fmax was measured by treating labeled cells with 60 μM digitonin. Intracellular free calcium concentrations were calculated using the following formula: (Ca^2+)=Kd (F−Fmin)/(Fmax−F), where Kd=325 nM for Fluo-3 according to manufacturer (Molecular Probes). Data are presented as mean±SEM (n=4-6) of the increase in intracellular calcium concentration.
U937-C5aR cells (10^7 cells/ml) were resuspended in HBSS-1% BSA containing 2 μM Fluo-3 AM and incubated at 37° C. for 40 minutes. Cells incubated without the dye were used as a control to measure autofluorescence (Fmin). Following the dye uptake, cells were washed twice then suspended at 5×10^6 cells/ml in HBSS containing 1% BSA. Cells were incubated for 30 min at 22° C. with either 50 nM DBP or 0.5 μM DBP peptide. For each measurement, 400 μl of cell suspension was added to a cuvette and stimulated with 0.1 nM purified C5a. Fluorescence was then measured immediately using a Perkin-Elmer LS-5 fluorometer at 505 nm excitation, 526 nm emission for Fluo-3 AM. Fmax was measured by treating labeled cells with 60 μM digitonin. Intracellular free calcium concentrations were calculated using the following formula: (Ca2+)=Kd (F−Fmin)/(Fmax−F), where Kd=325 nM for Fluo-3 according to manufacturer (Molecular Probes)

`C=C1/C(=C\C=C2/CCC[C@]3(C)[C@@H]([C@H](C)CCCC(C)(C)O)CC[C@@H]23)C[C@@H](O)C[C@@H]1O` [1,25(OH)2D3, 1,25(OH)2 Vitamin D3]: in test [1] (10 nM bound to DBP), the “neutrophil chemotaxis to optimal concentrations of C5a, formyl peptide, LTB4 or CXCL8 (IL-8)” value is recorded as “does not alter neutrophil chemotaxis”. The “effect on co-chemotactic activity of DBP (neutrophil chemotaxis toward C5a)” value in test [1] (ligand bound to DBP, 1,25(OH)2D3 100 nM) was “completely eliminated the co-chemotactic effect”. Further, the “effect on binding of 125I-DBP to neutrophils” value in test [2] is “did not alter DBP binding to neutrophils”. In addition, the “neutrophil AP activity” value in test [3] is listed as “not significantly altered”.

“EAFRKDPKEYANQFMWEYSTNYG [peptide 1, DBP residues 130-152]”: the “block of the cochemotactic function of full-length natural DBP (C5a+DBP)” value was “completely blocked the chemotactic enhancing effect of DBP” in test [4] (listed as DBP peptide 1) and “completely block” in test [4] (listed as SEQ ID NO: 3). Moreover, the entries for the “HL-60 cell chemotactic response to complement-activated serum (ZAS)” value in test [4] (listed as DBP peptide 1) and in test [4] (listed as SEQ ID NO: 3) were “completely blocked” and “eliminate”, respectively. In test [4], the “enhancement of C5a-mediated chemotaxis by the peptides” value was “could not enhance C5a-mediated chemotaxis”. The “inhibition of U937-C5aR cell binding to the DBP chip” value in test [5] is recorded as “no effect on cell binding”. Also, the “U937-C5aR cell binding to immobilized peptide” value in test [6] was “do not bind”. In test [7], the “block of the DBP-enhanced C5a calcium signal” value is “completely blocks”.

With “NYGQAPLSLLVSYTKSYLSMVGS [peptide 2, DBP residues 150-172]”, in test [4], the “block of the cochemotactic function of full-length natural DBP (C5a+DBP)” value is on record as “not” and the “enhancement of C5a-mediated chemotaxis by the peptides” value is reported as “could not enhance C5a-mediated chemotaxis”. Also, the “inhibition of U937-C5aR cell binding to the DBP chip” value in test [5] was “about 50%”. Also, in test [6], the “U937-C5aR cell binding to immobilized peptide” value was “do bind”.

The record behind these values is US7547676B2, “Antagonist peptides to the C5A chemotactic function of vitamin D binding protein” (The Research Foundation of State University of New York, priority 2004, dated 2009).
